For 28 compounds, IC50 and inhibition results are on record in ChEMBL document CHEMBL4811304, “Design, synthesis and biological evaluation of dual mTOR/HDAC6 inhibitors in MDA-MB-231 cells” (Bioorg Med Chem Lett, 2021).

One assay addresses T1, Protein deacetylase HDAC6 (Homo sapiens, UniProt Q9UBN7).
T1 sequence (Q9UBN7 whole entry): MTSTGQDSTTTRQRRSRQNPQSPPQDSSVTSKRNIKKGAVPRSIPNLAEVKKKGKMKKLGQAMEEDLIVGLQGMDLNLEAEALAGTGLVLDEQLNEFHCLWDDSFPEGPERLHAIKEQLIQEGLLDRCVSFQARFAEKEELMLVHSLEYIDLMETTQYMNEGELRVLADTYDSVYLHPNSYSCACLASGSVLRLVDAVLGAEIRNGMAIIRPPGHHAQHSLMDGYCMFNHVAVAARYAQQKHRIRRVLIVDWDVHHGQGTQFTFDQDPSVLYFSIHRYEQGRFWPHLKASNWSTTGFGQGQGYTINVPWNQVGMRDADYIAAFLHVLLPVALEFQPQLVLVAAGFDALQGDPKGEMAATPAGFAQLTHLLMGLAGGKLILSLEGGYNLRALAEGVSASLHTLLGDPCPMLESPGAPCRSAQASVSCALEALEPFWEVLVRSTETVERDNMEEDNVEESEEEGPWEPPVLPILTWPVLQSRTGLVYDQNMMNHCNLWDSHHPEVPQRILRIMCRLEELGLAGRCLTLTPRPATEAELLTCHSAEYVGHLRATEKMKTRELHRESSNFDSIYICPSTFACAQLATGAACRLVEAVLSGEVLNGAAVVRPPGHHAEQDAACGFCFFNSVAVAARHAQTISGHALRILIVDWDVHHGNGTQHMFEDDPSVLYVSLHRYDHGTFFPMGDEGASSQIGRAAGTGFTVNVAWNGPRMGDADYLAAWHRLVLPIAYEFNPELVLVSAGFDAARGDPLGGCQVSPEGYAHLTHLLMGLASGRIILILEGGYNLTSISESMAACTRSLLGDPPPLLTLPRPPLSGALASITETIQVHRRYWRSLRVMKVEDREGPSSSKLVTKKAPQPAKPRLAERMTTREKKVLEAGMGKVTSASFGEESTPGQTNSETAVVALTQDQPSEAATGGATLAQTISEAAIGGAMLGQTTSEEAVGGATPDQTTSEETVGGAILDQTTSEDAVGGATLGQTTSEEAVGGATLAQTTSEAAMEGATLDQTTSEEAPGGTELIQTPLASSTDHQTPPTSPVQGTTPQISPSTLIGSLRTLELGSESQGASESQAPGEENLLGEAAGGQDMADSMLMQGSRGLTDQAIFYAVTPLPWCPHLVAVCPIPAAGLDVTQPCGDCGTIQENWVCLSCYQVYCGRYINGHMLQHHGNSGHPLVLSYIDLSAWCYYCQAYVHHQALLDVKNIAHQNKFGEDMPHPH
The assay can be described thus: Inhibition of HDAC6 (unknown origin).
Broadly, the IC50 is the point on the concentration scale where inhibition reaches its midpoint. Lower therefore signals inhibition by little substance. In the case of `Cn1c(=O)n(-c2ccc(C(C)(C)C#N)cc2)c2c3cc(-c4cnc5ccccc5c4)ccc3ncc21` [DACTOLISIB], the IC50 came out at 2 nM.

The next assay concerns the target T2, Serine/threonine-protein kinase mTOR (Homo sapiens, UniProt P42345). The experiment in a line: Inhibition of mTOR (unknown origin) at 0.5 uM relative to control.
Broadly, the inhibition is the share of the control response that was lost under treatment. `CN1CCN(c2nc(-c3ccc(C(=O)NO)cc3)nc3ccccc23)CC1` returned an inhibition of 76.8%. The same measure, in the same setting: the result for `O=C(NO)c1ccc(-c2nc(N3CCSCC3)c3ccccc3n2)cc1` reads 44.7%; that for `O=C(NO)c1ccc(-c2nc(N3CCC(F)(F)CC3)c3ccccc3n2)cc1`, 18.4%; that for `O=C(NO)c1ccc(-c2nc(N3CCOCC3)c3ccccc3n2)cc1`, 60.1%. As for `O=C(NO)c1ccc(-c2nc(N3CCCC3)c3ccccc3n2)cc1`, the inhibition worked out at 11.3%. On the same count and under the same terms, in the case of `Cn1c(=O)n(-c2ccc(C(C)(C)C#N)cc2)c2c3cc(-c4cnc5ccccc5c4)ccc3ncc21` [DACTOLISIB] it was 95.4%.

In turn, `C[C@H]1COCCN1c1nc(-c2ccc(C(=O)NO)cc2)nc2ccccc12` returned an inhibition of 67.3%.

`O=C(NO)c1ccc(-c2nc(N3CCC(F)(F)CC3)c3ccc(Cl)cc3n2)cc1` displayed an inhibition of 18.2%.

With `O=C(NO)c1ccc(-c2nc(N3CCCC3)c3ccc(Cl)cc3n2)cc1`, the inhibition was found to be 18.3%. On the same count and under the same terms, the result for `O=C(NO)c1ccc(-c2nc(N3CCOCC3)c3ccc(Cl)cc3n2)cc1` reads 75.5%; that for `COc1cc(OC)c2c(N3CCC(F)(F)CC3)nc(-c3ccc(C(=O)NO)cc3)nc2c1`, 10.6%; that for `O=C(NO)c1ccc(-c2nc(N3CCS(=O)(=O)CC3)c3ccc(Cl)cc3n2)cc1`, 39.7%.

`O=C(NO)c1ccc(-c2nc(N3CCS(=O)(=O)CC3)c3ccccc3n2)cc1` had an inhibition of 37.4%. As to `C[C@H]1COCCN1c1nc(-c2ccc(C(=O)NO)cc2)nc2cc(Cl)ccc12`, the inhibition was 82.3%. `O=C(NO)c1ccc(-c2nc(N3CCSCC3)c3ccc(Cl)cc3n2)cc1` gave an inhibition of 44.9%. Same read-out and setting: in the case of `O=C(NO)c1ccc(-c2nc(N3CCCCC3)c3ccc(Cl)cc3n2)cc1` it was 14.9%. Compound `O=C(NO)c1ccc(-c2nc(N3CCCCC3)c3ccccc3n2)cc1` came in with an inhibition of 23.6%. The compound `COc1cc(OC)c2c(N3CCN(C)CC3)nc(-c3ccc(C(=O)NO)cc3)nc2c1` returned an inhibition of 67.6%.

For the compound `COc1cc(OC)c2c(N3CCS(=O)(=O)CC3)nc(-c3ccc(C(=O)NO)cc3)nc2c1`, the inhibition came to 34.8%. For `COc1cc(OC)c2c(N3CCCCC3)nc(-c3ccc(C(=O)NO)cc3)nc2c1`, the inhibition was found to be 11.5%. Take `COc1cc(OC)c2c(N3CCOC[C@@H]3C)nc(-c3ccc(C(=O)NO)cc3)nc2c1`: the inhibition turned out to be 55.4%. On to `C[C@@H]1COCCN1c1nc(-c2ccc(C(=O)NO)cc2)nc2ccccc12`, for which the inhibition amounted to 68.5%. Turning to `COc1cc(OC)c2c(N3CCOCC3)nc(-c3ccc(C(=O)NO)cc3)nc2c1`, the inhibition was determined as 48.9%. For the compound `COc1cc(OC)c2c(N3CCSCC3)nc(-c3ccc(C(=O)NO)cc3)nc2c1`, the inhibition came out at 33.8%. In turn, `C[C@@H]1COCCN1c1nc(-c2ccc(C(=O)NO)cc2)nc2cc(Cl)ccc12` came in with an inhibition of 78.8%. Regarding `COc1cc(OC)c2c(N3CCCC3)nc(-c3ccc(C(=O)NO)cc3)nc2c1`, the inhibition is 9.7%.

For the compound `COc1cc(OC)c2c(N3CCOC[C@H]3C)nc(-c3ccc(C(=O)NO)cc3)nc2c1`, the inhibition stood at 57.2%.

The target of the next assay is T2, Serine/threonine-protein kinase mTOR. The experiment in a line: Inhibition of mTOR (unknown origin).
Consider `CCNC(=O)Nc1ccc(-c2nc3c(c(N4CCOC[C@@H]4C)n2)CCN(C2COC2)C3)cc1` [RG-7603], for which half-maximal inhibition (IC50) was put at 3.8 nM. This lies in the single-digit nanomolar range.
